# Results taken from patent US20230124862A1, “BISMUTH THIOL COMPOUNDS AND COMPOSITIONS AND METHODS OF TREATING MICROBIAL CO-INFECTIONS” (Microbion Corporation, priority 2020, published 2023).
# Several values for one entry are separate records, joined by “and”; a condition that tells them apart may be missing. Equal entries are not always repeated. Where two headings read alike, the source gives them in different places.
# Key:
# [1] = system: Haemophilus influenzae; experiment: Broth microdilution MIC, Haemophilus influenzae clinical isolates; type: cell-based
# [2] = system: Haemophilus influenzae; conditions: H. influenzae MMX 1224 (ATCC 49247), cited from earlier work
# [3] = system: Achromobacter spp.; experiment: MIC testing of CF isolates; type: cell-based; conditions: strain AX4, A. xylosoxidans; read-out: MIC
# [4] = system: B. multivorans; experiment: MIC testing of CF isolates; type: cell-based, Burkholderia multivorans; conditions: Burkholderia multivorans; strain BC5b; read-out: MIC
# [5] = system: S. aureus ATCC 29213; conditions: control strain ATCC 29213; cited from earlier work
# [6] = system: P. aeruginosa; experiment: Checkerboard FIC/FICI assay; type: cell-based, Pseudomonas aeruginosa; conditions: for FICB / MICB: Amikacin in combination with BisEDT
# [7] = system: B. cepacia; experiment: MIC testing of CF isolates; type: cell-based, Burkholderia cepacia; conditions: Burkholderia cepacia; strain BC17; read-out: MIC
# [8] = system: Burkholderia cepacia complex; experiment: Checkerboard FIC/FICI assay; type: cell-based, Burkholderia spp.; conditions: for MICB: MIC of Amikacin (Drug B) in combination with BisEDT
# [9] = system: E. coli ATCC 25922; conditions: control strain ATCC 25922; cited from earlier work
# [10] = system: S. maltophilia; experiment: MIC testing of CF isolates; type: cell-based, Stenotrophomonas maltophilia; conditions: strain SM21
# [11] = system: B. cenocepacia; experiment: MIC testing of CF isolates; type: cell-based, Burkholderia cenocepacia
# [12] = system: Gram-negative organisms (P. aeruginosa, E. coli, A. baumannii, H. influenzae); experiment: Broth microdilution MIC with pulmonary surfactant (Survanta); type: cell-based
# [13] = system: Gram-negative organisms (P. aeruginosa, E. coli, A. baumannii, H. influenzae); conditions: P. aeruginosa ATCC 27853; cited from earlier work
# [14] = H. influenzae MMX 1224 (ATCC 49247)
# [15] = P. aeruginosa 6322, one value per panel row D-G
# [16] = P. aeruginosa 6977, by checkerboard
# [17] = P. aeruginosa 7745, by checkerboard
smiles,measurement,setting,value
CC[C@H]1OC(=O)[C@H](C)[C@@H](O[C@H]2C[C@@](C)(OC)[C@@H](O)[C@H](C)O2)[C@H](C)[C@@H](O[C@@H]2O[C@H](C)C[C@H](N(C)C)[C@H]2O)[C@](C)(O)C[C@@H](C)CN(C)[C@H](C)[C@@H](O)[C@]1(C)O [AZM],MIC,"[1]; H. influenzae MMX 0797, BLNAR",2 µg/mL
same,MIC,[1]; [14],2 µg/mL
same,MIC,[1]; H. influenzae MMX 1302,2 µg/mL
same,MIC,[1]; H. influenzae MMX 1304,2 µg/mL
same,MIC,[1]; H. influenzae MMX 1740,4 µg/mL
same,MIC,[1]; H. influenzae MMX 1741,1 µg/mL
same,MIC,"[1]; H. influenzae MMX 2795, BLNAR",2 µg/mL
same,MIC,"[1]; H. influenzae MMX 2796, BLNAR",2 µg/mL
same,MIC,"[1]; H. influenzae MMX 2798, BLNAR",0.5 µg/mL
same,MIC,"[1]; H. influenzae MMX 2799, BLNAR",0.5 µg/mL
same,MIC,[1]; H. influenzae MMX 5458,1 µg/mL
same,MIC,[1]; H. influenzae MMX 5461,2 µg/mL
same,MIC,[1]; H. influenzae MMX 5469,2 µg/mL
same,MIC,[1]; H. influenzae MMX 5494,1 µg/mL
same,MIC,[1]; H. influenzae MMX 5495,0.5 µg/mL
same,MIC,[1]; H. influenzae MMX 5499,2 µg/mL
same,CLSI Quality Control Range (MIC),[2]; in µg/mL,1-4
"NCC[C@H](O)C(=O)N[C@@H]1C[C@H](N)[C@@H](O[C@H]2O[C@H](CN)[C@@H](O)[C@H](O)[C@H]2O)[C@H](O)[C@H]1O[C@H]1O[C@H](CO)[C@@H](O)[C@H](N)[C@H]1O [Amikacin, reference compound]",MIC,[3],> 64 µg/mL
same,MIC,[4],> 64 µg/mL
same,Expected MIC: goal (acceptable range),[5],2 µg/mL
same,MICB,[6]; [15],128 µg/mL
same,MICB,[6]; [17],4 µg/mL
same,MIC,"[6]; Pseudomonas aeruginosa, P. aeruginosa 6977, Amikacin alone (checkerboard with BisEDT), read-out: Drug B MIC",16 µg/mL
same,MIC,[7],> 64 µg/mL
same,Expected MIC: goal (acceptable range),[9],1 to 2 µg/mL
same,MIC,[10],64 µg/mL
same,MIC,"[11]; Burkholderia cenocepacia, strain BC15, read-out: MIC",> 64 µg/mL
same,MIC,[11]; strain AU197,>64 µg/mL
C[C@@H](O)[C@H]1C(=O)N2C(C(=O)O)=C(SCCN=CN)C[C@H]12 [Imspenem],MIC,"[12]; A. baumanuii CSC 0288, 0 percent Survanta",16 µg/mL
same,MIC,"[12]; A. baumanuii CSC 0288, 1 percent Survanta",16 µg/mL
same,MIC,"[12]; A. baumanuii CSC 0288, 2.5 percent Survanta",16 µg/mL
same,MIC,"[12]; A. baumanuii CSC 0288, 5 percent Survanta",16 µg/mL
same,MIC,"[12]; B. cepucia MMX9040, 0 percent Survanta",8 µg/mL
same,MIC,"[12]; B. cepucia MMX9040, 1 percent Survanta",8 µg/mL
same,MIC,"[12]; B. cepucia MMX9040, 2.5 percent Survanta",8 µg/mL
same,MIC,"[12]; B. cepucia MMX9040, 5 percent Survanta",8 µg/mL
same,MIC,"[12]; B. cepucia MMX9040, 10 percent Survanta",8 µg/mL
same,MIC,"[12]; H. Influenzae ATCC 49247, 0 percent Survanta",0.5 µg/mL
same,MIC,"[12]; H. Influenzae ATCC 49247, 1 percent Survanta",0.5 µg/mL
same,MIC,"[12]; H. Influenzae ATCC 49247, 2.5 percent Survanta",0.5 µg/mL
same,MIC,"[12]; H. Influenzae MMX 2795, 0 percent Survanta",1 µg/mL
same,MIC,"[12]; P. aeruginosa ATCC 27853, 0 percent Survanta",2 µg/mL
same,MIC,"[12]; P. aeruginosa ATCC 27853, 1 percent Survanta",2 µg/mL
same,MIC,"[12]; P. aeruginosa ATCC 27853, 2.5 percent Survanta",2 µg/mL
same,MIC,"[12]; P. aeruginosa ATCC 27853, 5 percent Survanta",2 µg/mL
same,MIC,"[12]; P. aeruginosa ATCC 27853, 10 percent Survanta",2 µg/mL
same,MIC,"[12]; P. aeruginosa CDC 0444, 0 percent Survanta",>16 µg/mL
same,MIC,"[12]; P. aeruginosa CDC 0444, 1 percent Survanta",>16 µg/mL
same,MIC,"[12]; P. aeruginosa CDC 0444, 2.5 percent Survanta",>16 µg/mL
same,MIC,"[12]; P. aeruginosa CDC 0444, 5 percent Survanta",>16 µg/mL
same,MIC,"[12]; P. aeruginosa CDC 0444, 10 percent Survanta",>16 µg/mL
same,CLSI acceptable MIC QC range,[13],1 to 4 µg/mL
C[C@H]1COc2c(N3CCN(C)CC3)c(F)cc3c(=O)c(C(=O)O)cn1c23 [LEV],MIC,"[1]; H. influenzae MMX 0797, BLNAR",0.015 µg/mL
same,MIC,[1]; [14],0.015 µg/mL
same,MIC,[1]; H. influenzae MMX 1302,0.015 µg/mL
same,MIC,[1]; H. influenzae MMX 1304,0.015 µg/mL
same,MIC,[1]; H. influenzae MMX 1740,0.015 µg/mL
same,MIC,[1]; H. influenzae MMX 1741,0.015 µg/mL
same,MIC,"[1]; H. influenzae MMX 2795, BLNAR",0.015 µg/mL
same,MIC,"[1]; H. influenzae MMX 2796, BLNAR",0.015 µg/mL
same,MIC,"[1]; H. influenzae MMX 2798, BLNAR",0.015 µg/mL
same,MIC,"[1]; H. influenzae MMX 2799, BLNAR",0.015 µg/mL
same,MIC,[1]; H. influenzae MMX 5458,0.015 µg/mL
same,MIC,[1]; H. influenzae MMX 5461,0.03 µg/mL
same,MIC,[1]; H. influenzae MMX 5469,0.015 µg/mL
same,MIC,[1]; H. influenzae MMX 5494,0.015 µg/mL
same,MIC,[1]; H. influenzae MMX 5495,0.015 µg/mL
same,MIC,[1]; H. influenzae MMX 5499,0.015 µg/mL
same,CLSI Quality Control Range (MIC),[2],(0.008-0.03)
